Values quoted from earlier work in paper PMC2360332 (British Journal of Cancer, 2007).

How the values were obtained:
breast cancer growth = tested on: breast cancer growth; set-up: method as in Lippman and Bolan, 1975; conditions: ref Lippman and Bolan, 1975; cited from earlier work
breast cancer = conditions: cited from earlier work
[1] = tested on: MNU-induced breast cancers in rats; conditions: ref Parikh et al, 2005; cited from earlier work
From the text: (§1) A peptide (α-fetoprotein-derived peptide (AFPep), sequence cyclo(EKTOVNOGN), where O is hydroxyproline) derived from the active site of α-fetoprotein (AFP) has been under investigation as a potential agent for prevention or therapy of oestrogen receptor-positive (ER+) breast cancer ([Mesfin et al, 2000], [2001]; [Bennett et al, 2002], [2006]; [DeFreest et al, 2004]).

[2] = tested on: breast cancer that had become resistant to the cytostatic effects of tamoxifen; conditions: ref Bennett et al, 2002; cited from earlier work
From the text: as §1

ER = conditions: ref Parikh et al, 2005; Bennett et al, 2006; cited from earlier work
From the text: (§2) In fact, in this study and ...

immature mouse uterus = conditions: earlier study; ref Bennett et al, 2002; cited from earlier work
From the text: as §2

[3] = tested on: human breast cancer xenografts; conditions: cited from earlier work
From the text: as §1, with “2004]). […] In fact, in this study and ...” for “2004]).”

Compound	Breast cancer growth (in words) (breast cancer growth)	Risk of primary breast cancers (in words) (breast cancer; high-risk patients, ref Fisher et al, 1998)	Breast cancer recurrences (in words) (breast cancer; ref Early Breast Cancer Trialists' Collaborative Group, 1992)	Development of carcinogen-induced mammary cancers in rats (in words) [1]	Growth of tamoxifen-resistant breast cancer (in words) [2]	ER antagonist / partial agonist (in words) (ER)	Tam-induced uterine hyperplasia (in words) (immature mouse uterus)	Oral activity (in words) ([3]; oral route, ref Bennett et al, 2006)	Growth of human breast cancer xenografts in mice (in words) ([3]; ref Mesfin et al, 2001)
CC/C(=C(\c1ccccc1)c1ccc(OCCN(C)C)cc1)c1ccccc1 [Tam, Tamoxifen, reference compound]	inhibit breast cancer growth	decrease the risk of primary breast cancers in high-risk patients	inhibit breast cancer recurrences						
cyclo(EKTOVNOGN) (head to tail) [AFPep]				prevent the development of carcinogen-induced mammary cancers in rats	inhibit the growth of breast cancer that had become resistant to the cytostatic effects of tamoxifen	not an ER antagonist, nor an ER partial agonist	interferes with the uterine hyperplasia induced by Tam	active by the oral route	inhibit the growth of human breast cancer xenografts in mice
